{
  "source": "patent US20210228621A1",
  "about": "“COMPOSITION FOR SKIN WOUNDS” (SUMITOMO SEIKA CHEMICALS CO., LTD., priority 2018, published 2021)",
  "test": "CO concentration of the CO-containing compositions analyzed by gas chromatography",
  "assay_type": "physicochemical",
  "conditions": "about 2 atm; for CO concentration of liquid phase obtained by actual measurement: solvent H2O; for CO concentration in liquid phase obtained by actual measurement: solvent carbomer aqueous solution; for CO concentration of IPM: solvent isopropyl myristate",
  "experimental": "(§1) Pure water (2.5 mL) was placed in a vial. (3 mL, produced by Maruemu Corporation), and the vial was sealed with a rubber stopper and an aluminum seal. Next, a gas (N2 balance) having an arbitrarily adjusted CO concentration was collected in a Tedlar bag (1 L, produced by AS ONE Corporation). The air in the gas phase in the vial was replaced with the gas in the Tedlar bag until pressure reached about 2 atm by using a gas-tight syringe (M-GAN500, produced by Ito Corporation). Subsequently, the resulting product was allowed to stand until CO in the gas phase was dissolved in the liquid phase to reach equilibrium.\nThe CO concentration of the compositions was analyzed by gas chromatography (GC-2014 FID produced by Shimadzu Corporation).\nas §1, with “Isopropyl myristate (IPM: Wako first grade, produced by Fujifilm Wako Pure” for “Pure”, “Chemical Corporation)” for “water”, “vial” for “vial.”, “(MS-GAN500,” for “(M-GAN500,”\nThe CO concentration of the obtained compositions was analyzed by gas chromatography (GC-2014 FID produced by Shimadzu Corporation). When the CO (%) in the gas phase in the Tedlar bag was 18%, the CO concentration of IPM was 1500 μM. When the CO (%) in the gas phase in the Tedlar bag was 100%, the CO concentration of IPM was 9000 μM.\nas §1, with “The carbomer aqueous solution” for “Pure water”, “vial” for “vial.”, “(MS-GAN500,” for “(M-GAN500,”\nas §1, with “The hydroxyethyl cellulose aqueous solution” for “Pure water”, “vial” for “vial.”, “(MS-GAN500,” for “(M-GAN500,”\nThe CO concentration of the obtained CO-containing compositions was analyzed by gas chromatography (GC-2014 FID produced by Shimadzu Corporation). When the CO (%) in the gas phase in the Tedlar bag was 100%, the CO concentration in the hydroxyethyl cellulose aqueous solution was 1500 μM.",
  "key": {"[1]": {"conditions": "CO in gas phase in Tedlar bag 8% (theoretical value)"}, "[2]": {"conditions": "CO in gas phase in Tedlar bag 100% (theoretical value)"}},
  "data": [
    {"smiles": "[C-]#[O+]", "note": "[CO, carbon monoxide]", "values": [
      {"measurement": "CO concentration of liquid phase obtained by actual measurement", "setting": "[1]", "result": 100, "unit": "µM"},
      {"measurement": "CO concentration of liquid phase obtained by actual measurement", "setting": "CO in gas phase in Tedlar bag 34% (theoretical value)", "result": 500, "unit": "µM"},
      {"measurement": "CO concentration of liquid phase obtained by actual measurement", "setting": "CO in gas phase in Tedlar bag 67% (theoretical value)", "result": 1000, "unit": "µM"},
      {"measurement": "CO concentration of liquid phase obtained by actual measurement", "setting": "[2]", "result": 1500, "unit": "µM"},
      {"measurement": "CO concentration in liquid phase obtained by actual measurement", "setting": "[1]", "result": 100, "unit": "µM"},
      {"measurement": "CO concentration in liquid phase obtained by actual measurement", "setting": "CO in gas phase in Tedlar bag 35% (theoretical value)", "result": 500, "unit": "µM"},
      {"measurement": "CO concentration in liquid phase obtained by actual measurement", "setting": "[2]", "result": 1500, "unit": "µM"},
      {"measurement": "CO concentration in the hydroxyethyl cellulose aqueous solution", "setting": "solvent hydroxyethyl cellulose aqueous solution, CO in gas phase in Tedlar bag 100%", "result": 1500, "unit": "µM"},
      {"measurement": "CO concentration of IPM", "setting": "CO in gas phase in Tedlar bag 18%", "result": 1500, "unit": "µM"},
      {"measurement": "CO concentration of IPM", "setting": "CO in gas phase in Tedlar bag 100%", "result": 9000, "unit": "µM"}
    ]}
  ]
}
